Data taken from paper PMC11904948, “Peptide‐Drug Conjugate for Therapeutic Reprogramming of Tumor‐Associated Macrophages in Breast Cancer” (Advanced Science, 2025).

Legend:
[1] = Solubility in water; type: physicochemical; details: method not given
Text: Verteporfin (V), is a photosensitizer and inhibitor of the activation of YAP.^[ [41] ^] […] Verteporfin, in its liposomal formulation Visudyne, is an approved drug for certain ophthalmological indications. In clinical trials for cancer therapy, Verteporfin is mostly used for photodynamic therapy (clinical trial identifiers: NCT03067051, NCT03033225, NCT04590664).

[2] = test system: primary human macrophages; experiment: Cytokine secretion by primary human macrophages (bead-based multiplex panel); type: cell-based; details: 10 µM 4 h, washed, 48 h, supernatant, n = 3
Experimental: (§1) To investigate potential off‐target risk in vivo caused by MACTIDE‐V we analyzed the serum levels of the hepatic enzyme alanine aminotransferase (ALAT) following a 3 mg Kg^−1 dose of MACTIDE‐V in healthy mice. If MACTIDE‐V causes off‐target inflammation, it would likely occur in the liver (the organ that expresses the MACTIDE receptor) and would reflect on ALAT levels (liver inflammation produces a > 2‐fold increase in ALAT^[ [35] ^]).
Figure S9. Quantification of cytokines from the supernatant of primary human macrophages treated with MACTIDE-V. Primary human macrophages (obtained from monocytes derived from human blood buffy coat) were incubated with 10µM MACTIDE-V for 4 h, followed by 2 washes with media, the cells were then placed in new media and cultured for an additional 48 h. Then, the supernatant was collected and analyzed for cytokine expression using a bead-based multiplexed cytokine panel assay (Biolegend, cat# 740502) following the manufacturer’s instructions. Anova Fisher LSD (n=3).

[3] = test system: orthotopic 4T1 tumors; experiment: In vivo photodynamic therapy study in orthotopic 4T1; set-up: species or system Balb/c mice
Experimental: Figure 5 In vitro and in vivo photodynamic therapy with MACTIDE‐V. A) Structure of MACTIDE‐V. B) MACTIDE‐V, CtrlPep‐V, and DOX were incubated with primary human macrophages (obtained from monocytes derived from human blood buffy coat) at 30 µM for 1 h at 37 °C, followed by 2 washes with media. Then, the groups shown in pink were irradiated with 10 J cm^−2 (irradiance: 170 mW cm^−2, spot diameter: 0.5 cm). […] For the irradiated groups, 4 h after administration of conjugates or PBS, the mice were irradiated with 100 J cm^−2; shown is primary tumor volume progression during treatment. Gray arrows indicate injection days. D) Bodyweight during the treatment as % of the initial one. E) Representative mIHC images of PBS, CtrlPep‐V, and MACTIDE‐V‐treated tumors, 20X magnification, scale bar = 100 µm, white triangles point to Foxp3^+ cells. F) CD8^+ T cells, CD4^+ T cells, and Treg density, n = 6 mice/group, with every dot representing the mean cell density of each tumor obtained from 20 images. G) CD8^+ T cells density in CK8^+‐dense tumor regions. n = 5 mice/group, with every dot representing the mean cell density of each tumor obtained from 20 images. Median ± interquartile range. One‐way ANOVA with multiple comparisons, ^* p ≤ 0.05, ^** p ≤ 0.01.
Prompted by the consistent laser‐induced and preferential toxicity of MACTIDE‐V on IL‐4‐stimulated macrophages, we decided to evaluate its in vivo therapeutic effect on mice survival in the orthotopic 4T1 model. […] This prompted us to further investigate the effect of MACTIDE‐V (‐), which hereafter will be denoted simply as “MACTIDE‐V”. To obtain further information on the effect of MACTIDE‐V in this tumor model, we investigated T cell infiltration in treated tumors, using multiplex immunohistochemistry (mIHC), comparing MACTIDE‐V (‐) group to PBS and CtrlPep‐V (‐) groups.
Orthotopic tumors were induced by injecting 5×10^4 4T1 cells in 50 µL of PBS subcutaneously into the 4th mammary fat pad of 8–12‐week‐old female Balb/c mice. When tumors reached ≈40 mm^3, mice were sorted into groups: MACTIDE‐V (+), MACTIDE‐V (‐), CtrlPep‐V (+), CtrlPep‐V (‐), MACTIDE (‐), and PBS (+). Tumors were measured using a digital caliper (Mitutoyo) and volume was calculated using (W^2 × L)/2 formula, where W is the width of a tumor and L is the length. Each group had six mice. The first intraperitoneal injection (30 nmol) was carried out on day 9 post‐tumor induction. 4 h post‐injection, the tumor area was shaved to lessen laser scattering and tumors were irradiated with 100 J cm^−2 using the NIR laser source for PDT described above. Each tumor was measured, and the spot size was adjusted every time, keeping the radiation dose always constant. Irradiation of the tumors was done in complete darkness under anesthesia. Mice recovered on a heating pad and eye drops were applied to avoid eye dryness. All mice, whether irradiated or not, were anesthetized to keep the handling conditions the same. Mouse bodyweights and tumor volumes were monitored every other day. The sacrifice of mice began on day 23 based on their tumor sizes (over 1500 mm^3) or cachexia. The final mice were sacrificed on day 36 post‐tumor induction. Tumor volume curves are shown until day 23 when mice elimination began, and the sample number became too small for statistical comparison. Survival was analyzed using GraphPad Prism to plot Kaplan–Meier survival curves and perform the Mantel–Cox test for statistical analysis. Tumors taken on similar days were analyzed using mIHC.
The staining of 4 µm‐thick formalin‐fixed paraffin‐embedded (FFPE) tissue sections for mIHC analysis was carried out using the tyramide signal amplification‐based Opal method (Akoya Biosciences) on a Leica BOND RX automated immunostainer (Leica Microsystems). For each staining cycle, FFPE slides were deparaffinized and subjected to heat‐induced epitope retrieval at 97 or 100 °C using BOND epitope retrieval solutions ER1 or ER2 (Leica Biosystems).

[4] = Hepatic and renal toxicity serum levels in healthy mice; type: in vivo; details: 48 h after one i.p. dose of 3 mg/Kg, healthy Balb/c mice, n = 4
Experimental: as §1
Table S1. Hepatic and renal toxicity analysed following one dose of MACTIDE-V. Hepatic and renal toxicology serum levels of Crea and ALAT 48 h after i.p.-administration of MACTIDE-V (3 mg/kg) in healthy Balb/c mice (n=4). Normal ranges were obtained from Mouse Phenome Database by The Jackson Laboratory.

[5] = non-irradiated, versus PBS and CtrlPep‐V (‐), n = 6 mice/group

Vert‐Ahx‐G(CTKSIPPIC)SPGAK‐OH (disulfide) [MACTIDE‐V]
solubilization of Verteporfin by conjugation [1]: able to solubilize Verteporfin
secretion of IFN‐γ [2]: did not significantly increase
secretion of IL‐1RA [2]: significantly decreased
secretion of IL‐12 [2]: significantly increased
secretion of IL‐23 [2]: significantly increased
secretion of TNF‐α [2]: did not significantly increase
mice survival ([3]; Kaplan–Meier, Mantel–Cox test): no significant differences
primary tumor volume, non‐irradiated (‐) ([3]; i.p. 30 nmol (1 mg Kg^−1 in Verteporfin), no laser, n = 6/group, significant respect to PBS): strongest tumor volume reduction
primary tumor growth, irradiated (+) ([3]; i.p. 30 nmol, irradiated 100 J cm^−2 4 h after administration, n = 6/group, versus control groups, not statistically significant): slowed down the tumor growth
body weight, non‐irradiated (‐) ([3]; i.p. 30 nmol, no laser, % of initial bodyweight): negligible effect on body weight
CD8^+ T cell density in CK8^+‐dense tumor regions (mIHC) ([3]; non-irradiated, n = 5 mice/group): higher CD8^+ T cell density
CD8^+ T cell infiltration in tumors (mIHC) [3, 5]: significantly higher infiltration of CD8^+ T cells
density of regulatory T cells (Tregs) in tumors (mIHC) [3, 5]: no differences in the density of regulatory T cells
Creatinine, serum ([4]; normal range 10-36): 11.8 ± 1 µM
Alanine aminotransferase, serum ([4]; normal range 50-90): 52 ± 10.5 U/I
